Toxic doses and inconclusive results are not listed.

The subject of this experiment is CD2F1 mice, L1210 leukemia ip, survival T/C. Nature of the experiment: NCI In Vivo Anticancer Drug Screen. Data for tumor model L1210 Leukemia (intraperitoneal) in CD2F1 (CDF1) mice. Particulars: higher = longer survival. The method, boiled down: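 Compound-dosed mice with transplantable tumor versus matched vehicle controls; endpoint ratio T/C reported.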
Setting [1] is: endpoint: mean survival time, dose: 100.0 mg/kg/injection, schedule: Q04DX003 (ip), vehicle: saline with Tween-80.
The mark [2] stands for this setting: endpoint: mean survival time, dose: 200.0 mg/kg/injection, schedule: Q04DX003 (ip), vehicle: saline with Tween-80.
[3] abbreviates: endpoint: mean survival time, dose: 50.0 mg/kg/injection, schedule: Q01DX009 (ip), vehicle: saline with Tween-80.
Where [4] appears, read: endpoint: mean survival time, dose: 100.0 mg/kg/injection, schedule: Q01DX009 (ip), vehicle: saline with Tween-80.
The mark [5] stands for this setting: endpoint: mean survival time, dose: 400.0 mg/kg/injection, schedule: Q04DX003 (ip), vehicle: saline with Tween-80.
Setting [6] is: endpoint: mean survival time, dose: 100.0 mg/kg/injection, schedule: Q01DX001 (ip), vehicle: saline with Tween-80.
Setting [7] is: endpoint: mean survival time, dose: 200.0 mg/kg/injection, schedule: Q01DX001 (ip), vehicle: saline with Tween-80.
The mark [8] stands for this setting: endpoint: mean survival time, dose: 400.0 mg/kg/injection, schedule: Q01DX001 (ip), vehicle: saline with Tween-80.
Setting [9] is: endpoint: mean survival time, dose: 200.0 mg/kg/injection, schedule: Q01DX009 (ip), vehicle: saline with Tween-80.
Setting [10] is: endpoint: mean survival time, dose: 400.0 mg/kg/injection, schedule: Q01DX009 (ip), vehicle: saline with Tween-80.
The mark [11] stands for this setting: endpoint: mean survival time, dose: 100.0 mg/kg/injection, schedule: Q01DX001 (ip), vehicle: saline.
The mark [12] stands for this setting: endpoint: mean survival time, dose: 200.0 mg/kg/injection, schedule: Q01DX001 (ip), vehicle: saline.
Where [13] appears, read: endpoint: mean survival time, dose: 400.0 mg/kg/injection, schedule: Q01DX001 (ip), vehicle: saline.

With `C=CC1(C)CC(=O)C2(O)C(C)(O1)C(OC(C)=O)C(O)C1C(C)(C)CCC(O)C12C` (stereo not given), the T/C is 98 % of control (endpoint: median survival time, dose: 4.0 mg/kg/injection, schedule: Q01DX005 (ip), vehicle: other); 101 % of control (endpoint: median survival time, dose: 8.0 mg/kg/injection, schedule: Q01DX005 (ip), vehicle: other); 93 % of control (endpoint: median survival time, dose: 16.0 mg/kg/injection, schedule: Q01DX005 (ip), vehicle: other).

For the molecule `CN(C)c1ccc(/C=C2\CCC/C(=C\c3ccc(N(C)C)cc3)C2=O)cc1`, the T/C runs as follows: (endpoint: mean survival time, dose: 100.0 mg/kg/injection, schedule: Q01DX009 (ip), vehicle: Klucel (hydroxypropylcellulose) (HPC)) 95 % of control; (endpoint: mean survival time, dose: 200.0 mg/kg/injection, schedule: Q01DX009 (ip), vehicle: Klucel (hydroxypropylcellulose) (HPC)) 101 % of control; (endpoint: mean survival time, dose: 400.0 mg/kg/injection, schedule: Q01DX009 (ip), vehicle: Klucel (hydroxypropylcellulose) (HPC)) 95 % of control.

For the molecule `CC1=Cc2ccc(C)cc2C(=O)C1=O`, the T/C runs as follows: (endpoint: mean survival time, dose: 1.56 mg/kg/injection, schedule: Q04DX002 (ip), vehicle: saline with Tween-80) 117 % of control; (endpoint: mean survival time, dose: 3.13 mg/kg/injection, schedule: Q04DX002 (ip), vehicle: saline with Tween-80) 106 % of control.

In the case of `O=C(Nn1c(=O)c(=O)oc2ccccc21)C(F)(F)F`, the T/C runs as follows: under setting [1], 96 % of control; under setting [2], 94 % of control.

Turning to `CCCCCCCCC/C=C(/CC(=O)O)C(=O)O`, the T/C by setting is: (endpoint: mean survival time, dose: 25.0 mg/kg/injection, schedule: Q01DX009 (ip), vehicle: saline with Tween-80) 92 % of control; under setting [3], 96 % of control; under setting [4], 102 % of control.

In the case of `CC(O)C1CCC2C3CCC4CC(O)CCC4(C)C3CCC12C` (stereo not given), the T/C under setting [1] was 95 % of control, the T/C under setting [2] is 96 % of control and the T/C under setting [5] was 101 % of control.

Consider `O=C1OC(=O)C2C3c4ccccc4C(c4c3c(-c3ccccc3)c3ccccc3c4-c3ccccc3)C12` (stereo not given), for which the T/C under setting [6] is 87 % of control, the T/C under setting [7] is 87 % of control and the T/C under setting [8] is 93 % of control.

Take `CC1(C)C(=O)C(Br)=Cc2ccccc21`: the T/C runs as follows: (endpoint: mean survival time, dose: 12.5 mg/kg/injection, schedule: Q01DX009 (ip), vehicle: other) 105 % of control; (endpoint: mean survival time, dose: 25.0 mg/kg/injection, schedule: Q01DX009 (ip), vehicle: other) 100 % of control; (endpoint: mean survival time, dose: 50.0 mg/kg/injection, schedule: Q01DX009 (ip), vehicle: other) 111 % of control; (endpoint: mean survival time, dose: 100.0 mg/kg/injection, schedule: Q01DX009 (ip), vehicle: other) 108 % of control; (endpoint: mean survival time, dose: 200.0 mg/kg/injection, schedule: Q01DX009 (ip), vehicle: other) 105 % of control.

`NC(=O)c1n[nH]c(C2OC(COP(=O)(O)O)C(O)C2O)n1` (stereo not given): the T/C (endpoint: mean survival time, dose: 12.5 mg/kg/injection, schedule: Q01DX005 (ip), vehicle: water) was 100 % of control; the T/C (endpoint: mean survival time, dose: 25.0 mg/kg/injection, schedule: Q01DX005 (ip), vehicle: water) is 100 % of control; the T/C (endpoint: mean survival time, dose: 50.0 mg/kg/injection, schedule: Q01DX005 (ip), vehicle: water) is 96 % of control; the T/C (endpoint: mean survival time, dose: 100.0 mg/kg/injection, schedule: Q01DX005 (ip), vehicle: water) was 97 % of control; the T/C (endpoint: mean survival time, dose: 200.0 mg/kg/injection, schedule: Q01DX005 (ip), vehicle: water) is 96 % of control.

Regarding `NC(=O)c1nn(C2OC(CO)C(O)C2O)c2ncnc(N)c12` (stereo not given), the T/C (endpoint: mean survival time, dose: 25.0 mg/kg/injection, schedule: Q01DX009 (ip), vehicle: Klucel (hydroxypropylcellulose) (HPC)) is 207 % of control and the T/C (endpoint: mean survival time, dose: 50.0 mg/kg/injection, schedule: Q01DX009 (ip), vehicle: Klucel (hydroxypropylcellulose) (HPC)) is 200 % of control.

Take `C(=N/N=C/c1ccc2c(c1)OCO2)/c1ccco1`: the T/C reads like this: under setting [1], 93 % of control; under setting [9], 90 % of control; under setting [2], 96 % of control; under setting [10], 86 % of control; under setting [5], 95 % of control.

In the case of `COc1cc(OC)c(NC(=O)Nc2ccc(C)c([N+](=O)[O-])c2)cc1Cl`, the T/C under setting [3] was 98 % of control, the T/C under setting [4] is 90 % of control and the T/C under setting [9] is 94 % of control.

As to `CC(C)(C)CC(C)(C)C1=CC(=O)C(C(C)(C)CC(C)(C)C)=CC1=O`, the T/C is 91 % of control under setting [6], 90 % of control under setting [7] and 86 % of control under setting [8].

As to `Cc1cc(Br)ccc1C(=O)O`, the T/C is, setting by setting: under setting [6], 94 % of control; under setting [7], 91 % of control; under setting [8], 102 % of control.

For `O=S(=O)(c1ccccc1)c1cccs1`, the T/C was 93 % of control (endpoint: mean survival time, dose: 50.0 mg/kg/injection, schedule: Q04DX003 (ip), vehicle: saline); 110 % of control under setting [11]; 98 % of control (endpoint: mean survival time, dose: 100.0 mg/kg/injection, schedule: Q04DX003 (ip), vehicle: saline); 112 % of control under setting [12]; 95 % of control (endpoint: mean survival time, dose: 200.0 mg/kg/injection, schedule: Q04DX003 (ip), vehicle: saline); 112 % of control under setting [13].

As for `C=CC(=O)NC(C)(C)CC(C)=O`, the T/C by setting is: under setting [6], 98 % of control; under setting [11], 103 % of control; (endpoint: mean survival time, dose: 100.0 mg/kg/injection, schedule: Q01DX009 (ip), vehicle: saline) 100 % of control; under setting [7], 102 % of control; under setting [12], 97 % of control; (endpoint: mean survival time, dose: 200.0 mg/kg/injection, schedule: Q01DX009 (ip), vehicle: saline) 100 % of control. Moreover, the T/C is 102 % of control under setting [8] and 102 % of control under setting [13].

Consider `CCOc1ccc(N=Nc2sc(N)nc2-c2cccc([N+](=O)[O-])c2)cc1`, for which the T/C under setting [6] was 89 % of control, the T/C under setting [7] is 96 % of control and the T/C under setting [8] is 96 % of control.

For the molecule `Oc1ccc(C/C=C/c2ccccc2)cc1`, the T/C under setting [1] was 102 % of control, the T/C under setting [2] is 100 % of control and the T/C under setting [5] is 102 % of control.

`CC12CC=CCC1CCC/C2=N/O` (stereo not given): the T/C runs as follows: under setting [6], 113 % of control; (endpoint: mean survival time, dose: 100.0 mg/kg/injection, schedule: Q04DX003 (ip), vehicle: acetone) 96 % of control; under setting [7], 97 % of control; (endpoint: mean survival time, dose: 200.0 mg/kg/injection, schedule: Q04DX003 (ip), vehicle: acetone) 98 % of control; under setting [8], 103 % of control; (endpoint: mean survival time, dose: 400.0 mg/kg/injection, schedule: Q04DX003 (ip), vehicle: acetone) 96 % of control.

As for `O.O.[Cl][Pt+2][Cl].[NH-]CC1(C[NH-])CCCCC1`, the T/C (endpoint: median survival time, dose: 3.12 mg/kg/injection, schedule: Q04DX003 (ip), vehicle: saline) was 121 % of control.

`C(=N\Nc1ccccc1)/c1ccc2c(c1)OCO2`: the T/C by setting is: under setting [6], 100 % of control; under setting [4], 97 % of control; under setting [7], 101 % of control; under setting [9], 104 % of control; under setting [8], 95 % of control; under setting [10], 100 % of control.

As to `Clc1ccc(OCc2sc3ccc(Cl)cc3c2CN2CCOCC2)cc1`, the T/C runs as follows: under setting [4], 94 % of control; under setting [9], 101 % of control; under setting [10], 92 % of control.

As for `CS(=O)(=O)c1ncc[nH]1`, the T/C is 100 % of control under setting [1], 109 % of control under setting [2] and 109 % of control under setting [5].

In the case of `CN(C)c1ccc(/C=C/c2nc3ccccc3o2)cc1`, the T/C is 96 % of control (endpoint: mean survival time, dose: 100.0 mg/kg/injection, schedule: Q04DX003 (ip), vehicle: Klucel (hydroxypropylcellulose) (HPC)); 100 % of control (endpoint: mean survival time, dose: 200.0 mg/kg/injection, schedule: Q04DX003 (ip), vehicle: Klucel (hydroxypropylcellulose) (HPC)); 102 % of control (endpoint: mean survival time, dose: 400.0 mg/kg/injection, schedule: Q04DX003 (ip), vehicle: Klucel (hydroxypropylcellulose) (HPC)).

As for `Cc1cccnc1-n1c(N)cc(=O)[nH]c1=S`, the T/C is, setting by setting: under setting [1], 97 % of control; under setting [2], 101 % of control; under setting [5], 100 % of control.

For `C=CC(C)(C)c1ccccc1`, the T/C was 93 % of control under setting [3], 96 % of control under setting [4] and 98 % of control under setting [9].

Regarding `O=C1C2C3C=CC(O3)C2C(=O)N1O` (stereo not given), the T/C runs as follows: (endpoint: mean survival time, dose: 12.5 mg/kg/injection, schedule: Q01DX009 (ip), vehicle: water) 97 % of control; (endpoint: mean survival time, dose: 25.0 mg/kg/injection, schedule: Q01DX009 (ip), vehicle: water) 96 % of control.

These data come from PubChem BioAssay AID256 (DTP/NCI, 2004).
